Data: patent US20200061062A1, “INHIBITORS OF HUMAN PHOSPHATIDYLINOSITOL 3-KINASE DELTA” (ICOS Corporation, priority 2000, published 2020)

Columns and labels:
PI3Kβ [1] = target: T1, PI3Kβ (Homo sapiens, UniProt P42338); assay: Biochemical assay of PI3K potency and selectivity using 20 μM ATP, Beta; conditions: 20 μM ATP; for IC50: read-out: Beta IC50; for Beta/Delta Ratio: ratio of IC50 values, > = hypothetical ratio with 100 μM substituted for the missing IC50; for remaining activity at 100 µM: read-out: Beta: percent activity remaining at 100 μM, 100 μM compound did not inhibit by at least 50%
T1 construct: His tag (pFastbac HTa vector) (N); FLAG (N); made in house; host or cells: Sf21 insect cells (baculovirus)
T1 sequence (P42338 whole entry): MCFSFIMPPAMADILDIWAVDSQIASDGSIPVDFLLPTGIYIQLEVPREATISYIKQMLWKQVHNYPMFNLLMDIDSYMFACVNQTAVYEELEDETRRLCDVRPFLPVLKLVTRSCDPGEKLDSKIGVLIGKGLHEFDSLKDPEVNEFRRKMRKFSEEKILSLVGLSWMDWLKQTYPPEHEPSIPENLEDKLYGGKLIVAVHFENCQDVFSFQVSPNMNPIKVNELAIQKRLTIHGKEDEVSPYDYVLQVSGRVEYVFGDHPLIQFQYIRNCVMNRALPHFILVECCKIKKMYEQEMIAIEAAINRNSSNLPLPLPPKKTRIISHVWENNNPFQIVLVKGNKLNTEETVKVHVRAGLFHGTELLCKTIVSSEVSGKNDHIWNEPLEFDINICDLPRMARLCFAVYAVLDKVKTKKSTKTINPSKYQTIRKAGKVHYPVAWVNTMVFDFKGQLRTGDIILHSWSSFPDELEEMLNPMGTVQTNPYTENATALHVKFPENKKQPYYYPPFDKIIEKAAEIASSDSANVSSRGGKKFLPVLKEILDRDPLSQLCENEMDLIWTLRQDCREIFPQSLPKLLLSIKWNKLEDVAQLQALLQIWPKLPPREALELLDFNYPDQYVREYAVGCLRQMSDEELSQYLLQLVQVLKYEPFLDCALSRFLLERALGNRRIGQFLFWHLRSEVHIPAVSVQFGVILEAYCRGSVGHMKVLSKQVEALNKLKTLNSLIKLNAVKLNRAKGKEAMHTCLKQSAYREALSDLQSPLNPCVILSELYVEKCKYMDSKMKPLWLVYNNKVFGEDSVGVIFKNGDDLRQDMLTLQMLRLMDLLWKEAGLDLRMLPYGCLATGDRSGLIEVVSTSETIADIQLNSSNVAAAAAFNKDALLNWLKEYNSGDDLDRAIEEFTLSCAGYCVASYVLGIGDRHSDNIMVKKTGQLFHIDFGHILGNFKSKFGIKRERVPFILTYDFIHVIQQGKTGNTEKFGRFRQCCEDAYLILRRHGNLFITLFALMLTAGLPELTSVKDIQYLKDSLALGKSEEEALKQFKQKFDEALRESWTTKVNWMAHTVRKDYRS
T1 sequence (P27986 whole entry partner): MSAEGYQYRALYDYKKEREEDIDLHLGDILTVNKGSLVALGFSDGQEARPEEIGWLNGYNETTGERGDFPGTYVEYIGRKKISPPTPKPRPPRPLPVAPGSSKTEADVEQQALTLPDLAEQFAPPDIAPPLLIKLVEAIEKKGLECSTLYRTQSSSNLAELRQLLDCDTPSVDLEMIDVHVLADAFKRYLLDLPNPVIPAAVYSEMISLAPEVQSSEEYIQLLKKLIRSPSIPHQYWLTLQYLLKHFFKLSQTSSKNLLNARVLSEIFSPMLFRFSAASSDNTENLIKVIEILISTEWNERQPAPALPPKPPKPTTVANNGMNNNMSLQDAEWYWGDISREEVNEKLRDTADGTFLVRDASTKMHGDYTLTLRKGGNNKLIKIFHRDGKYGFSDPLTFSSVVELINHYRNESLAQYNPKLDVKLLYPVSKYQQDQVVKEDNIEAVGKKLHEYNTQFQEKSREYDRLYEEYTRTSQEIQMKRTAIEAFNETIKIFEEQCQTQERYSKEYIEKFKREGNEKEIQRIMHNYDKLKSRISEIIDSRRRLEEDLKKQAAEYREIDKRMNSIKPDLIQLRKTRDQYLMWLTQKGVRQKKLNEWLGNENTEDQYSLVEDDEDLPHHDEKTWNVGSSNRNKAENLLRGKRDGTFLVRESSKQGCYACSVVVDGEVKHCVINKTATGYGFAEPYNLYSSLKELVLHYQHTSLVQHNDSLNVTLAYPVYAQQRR
Method in brief: (§1)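 Radioactive phosphate transfer from γ-[32P]ATP onto PIP2/PS liposomes was measured in 20 mM HEPES, pH 7.4, at 20 μM ATP. The 3× substrate stock contained […] and 6 μM PIP2/PS.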

PI3Kγ [2] = target: T2, PI3Kγ (Homo sapiens, UniProt P48736); assay: Biochemical assay of PI3K potency and selectivity using 20 μM ATP, Gamma
T2 construct: His tag (pFastbac HTb vector) (N); FLAG (N); made in house; host or cells: Sf21 insect cells (baculovirus)
T2 sequence (P48736 whole entry): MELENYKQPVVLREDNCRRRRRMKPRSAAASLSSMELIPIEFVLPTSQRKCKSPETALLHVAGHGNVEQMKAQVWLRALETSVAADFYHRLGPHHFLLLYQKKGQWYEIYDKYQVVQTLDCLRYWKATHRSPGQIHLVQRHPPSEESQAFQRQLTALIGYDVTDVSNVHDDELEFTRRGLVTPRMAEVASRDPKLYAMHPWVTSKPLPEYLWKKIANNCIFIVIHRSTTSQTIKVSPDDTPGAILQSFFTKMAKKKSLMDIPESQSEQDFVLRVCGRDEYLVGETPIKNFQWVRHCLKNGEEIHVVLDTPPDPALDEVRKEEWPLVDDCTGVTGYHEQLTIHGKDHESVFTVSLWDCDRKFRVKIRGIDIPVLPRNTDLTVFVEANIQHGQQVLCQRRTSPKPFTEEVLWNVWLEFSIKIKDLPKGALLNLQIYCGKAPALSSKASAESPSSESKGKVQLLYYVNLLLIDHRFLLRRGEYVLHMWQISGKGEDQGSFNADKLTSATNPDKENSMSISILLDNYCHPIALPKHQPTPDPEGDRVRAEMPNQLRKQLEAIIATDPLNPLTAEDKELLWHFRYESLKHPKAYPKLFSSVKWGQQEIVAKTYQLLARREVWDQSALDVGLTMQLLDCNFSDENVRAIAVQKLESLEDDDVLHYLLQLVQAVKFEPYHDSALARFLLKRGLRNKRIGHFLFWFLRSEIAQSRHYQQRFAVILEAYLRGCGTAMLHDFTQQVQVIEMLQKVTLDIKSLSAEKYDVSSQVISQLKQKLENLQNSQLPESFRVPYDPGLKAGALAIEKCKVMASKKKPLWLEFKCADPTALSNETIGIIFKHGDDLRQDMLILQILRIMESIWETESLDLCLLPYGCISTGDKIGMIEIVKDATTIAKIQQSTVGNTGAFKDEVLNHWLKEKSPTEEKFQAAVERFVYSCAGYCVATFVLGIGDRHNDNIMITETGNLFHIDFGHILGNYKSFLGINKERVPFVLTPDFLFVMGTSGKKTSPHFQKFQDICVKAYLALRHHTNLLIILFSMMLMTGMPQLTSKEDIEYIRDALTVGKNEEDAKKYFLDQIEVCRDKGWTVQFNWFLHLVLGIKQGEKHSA
Description: Recombinant baculoviruses containing the above clones were generated using manufacturer's recommended protocol (Life Technologies). Baculoviruses expressing His-tagged p110α, p110γ, or p110δ catalytic subunit and p85 subunit were coinfected into Sf21 insect cells. To enrich the heterodimeric enzyme complex, an excess amount of baculovirus expressing p85 subunit was infected, and the His-tagged p110 catalytic subunit complexed with p85 was purified on nickel affinity column. […] In an alternate approach, p101 can be cloned into baculovirus, to permit coexpression with its preferred binding partner p110γ. […]

[3] = system: Murine splenocytes (Balb/c); assay: B cell proliferation in response to cell surface IgM stimulation; assay type: cell-based; conditions: Mus musculus, Splenocyte; stimulated B cell proliferation; read-out: Mouse BCR Stim (EC50)
Method in brief: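 Balb/c splenocytes (2×10^5/well, 10% FBS/RPMI) preincubated 30-60 min with inhibitor, then stimulated with goat F(ab′)2 anti-mouse IgM μ-chain at 25 μg/mL final. Cultured 3 days at 37° C., [^3H]-thymidine pulsed for final 4 h; incorporation counted as CPM. Values are EC50 (μM).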

T cell proliferation = assay: Stimulated T cell proliferation (Mouse TCE Stim, Table 4); assay type: cell-based; conditions: stimulated T cell proliferation, read-out: Mouse TCE Stim (EC50)
PI3Kδ [4] = target: T3, PI3Kδ (Homo sapiens, UniProt O00329, S253N); assay: Biochemical assay using 200 μM ATP, Delta;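 note: radiometric filter-binding assay: PI3Kδ transfers ³²P from γ-[³²P]ATP onto PIP2/PS liposomes, counted by scintillation, enzyme-only wells as positive control, no-enzyme wells as background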
T3 sequence (O00329 whole entry S253N): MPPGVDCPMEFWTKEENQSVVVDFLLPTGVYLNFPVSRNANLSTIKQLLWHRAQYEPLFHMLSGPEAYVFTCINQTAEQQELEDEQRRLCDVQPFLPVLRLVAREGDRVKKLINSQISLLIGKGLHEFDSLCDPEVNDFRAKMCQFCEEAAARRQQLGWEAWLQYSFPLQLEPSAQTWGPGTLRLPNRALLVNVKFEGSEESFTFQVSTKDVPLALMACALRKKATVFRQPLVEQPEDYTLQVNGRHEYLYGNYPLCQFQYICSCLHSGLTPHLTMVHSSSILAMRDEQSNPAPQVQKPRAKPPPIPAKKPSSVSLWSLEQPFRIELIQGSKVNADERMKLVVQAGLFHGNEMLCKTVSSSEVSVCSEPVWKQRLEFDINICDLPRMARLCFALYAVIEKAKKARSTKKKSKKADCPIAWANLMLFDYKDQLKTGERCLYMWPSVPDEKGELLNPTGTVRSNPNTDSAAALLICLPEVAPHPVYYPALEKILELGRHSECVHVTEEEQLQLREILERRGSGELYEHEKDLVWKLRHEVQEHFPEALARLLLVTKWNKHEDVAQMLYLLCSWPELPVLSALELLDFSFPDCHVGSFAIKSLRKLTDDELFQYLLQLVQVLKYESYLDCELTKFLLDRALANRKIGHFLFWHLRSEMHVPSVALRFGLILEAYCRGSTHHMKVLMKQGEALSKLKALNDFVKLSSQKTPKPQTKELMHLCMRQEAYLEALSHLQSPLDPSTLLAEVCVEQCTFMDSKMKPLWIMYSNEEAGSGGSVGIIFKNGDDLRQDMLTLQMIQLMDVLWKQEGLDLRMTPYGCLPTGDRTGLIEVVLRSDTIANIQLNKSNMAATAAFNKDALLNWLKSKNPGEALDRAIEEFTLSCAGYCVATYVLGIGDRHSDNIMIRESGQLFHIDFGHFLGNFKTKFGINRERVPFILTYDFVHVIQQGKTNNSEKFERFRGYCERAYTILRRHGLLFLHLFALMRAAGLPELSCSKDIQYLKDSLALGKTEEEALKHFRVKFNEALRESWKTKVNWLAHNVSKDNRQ
T3 sequence (P27986 whole entry partner): as the sequence (P27986 whole entry partner) above
Description: (§2) PI3Kδ catalyzes a phosphotransfer from γ-[^32P]ATP to PIP2/PS liposomes at the D3′ position of the PIP2 lipid inositol ring. This reaction is MgCl2 dependent and is quenched in high molarity potassium phosphate buffer pH 8.0 containing 30 mM EDTA. […] The reaction products (and all unlabelled products) are transferred to a 96-well, prewetted PVDF filter plate, filtered, and washed in high molarity potassium phosphate. Scintillant is added to the dried wells and the incorporated radioactivity is quantitated.
(§3) This dilution established a final concentration of 200 μM ATP in the reaction volume. The reaction was stopped with 150 μL quench buffer (1.0 M potassium phosphate pH 8.0, 30 mM EDTA). A portion of the quenched solution (180 μL) was then transferred to a PVDF filter plate (Millipore # MAIP NOB prewetted with sequential 200 μL washes of 100% methanol, water, and finally 1.0 M potassium phosphate pH 8.0 wash buffer).
(§4) The PVDF filter plate was aspirated under moderate vacuum (2-5 mm Hg), washed with 5×200 μL of wash buffer, and then dried by aspiration. The filter was subsequently blotted, allowed to air dry completely, and inserted into a Wallac counting cassette with 50 μL of Ecoscint scintillation cocktail added per well.
(§5) Subsequent selectivity assays were done similarly using the same 3× substrate stocks except they contained 0.05 mCi/mL γ[^32P]ATP and 3 mM PIP2. Subsequent selectivity assays also used the same 3× enzyme stocks, except they now contained 3 nM of any given PI3K isoform.
(§6) For all selectivity assays, the test compounds were weighed out and dissolved into 10-50 mM stocks in 100% DMSO (depending on their respective solubilities) and stored at −20° C. […] From these dilutions, 20 μL was added into the assay wells alongside water blanks used for the enzyme (positive) control and the no enzyme (background) control.
(§7) This selectivity protocol is identical to that described above, except the 3× stock ATP concentration was 600 μM.

PI3Kδ [5] = target: T3, PI3Kδ; assay: Biochemical assay of PI3K potency and selectivity using 20 μM ATP, Delta; parameters: His tag (pFastbac HTb vector) (N); FLAG; made in house; host or cells: Sf21 insect cells (baculovirus); conditions: 20 μM ATP; read-out: Delta IC50
Method in brief: as §1

PI3Kα [6] = target: T4, PI3Kα (Homo sapiens, UniProt P42336); assay: Biochemical assay of PI3K potency and selectivity using 20 μM ATP, Alpha; conditions: for Alpha/Delta Ratio / IC50: 20 μM ATP; for Alpha/Delta Ratio: ratio of IC50 values, > = hypothetical ratio with 100 μM substituted for the missing IC50; for IC50: read-out: Alpha IC50; for remaining activity at 100 µM: read-out: percent activity remaining at 100 μM, 20 μM ATP, 100 μM compound did not inhibit by at least 50%
T4 construct: His tag (pFastbac HTb vector) (N); FLAG; made in house; host or cells: Sf21 insect cells (baculovirus)
T4 sequence (P42336 whole entry): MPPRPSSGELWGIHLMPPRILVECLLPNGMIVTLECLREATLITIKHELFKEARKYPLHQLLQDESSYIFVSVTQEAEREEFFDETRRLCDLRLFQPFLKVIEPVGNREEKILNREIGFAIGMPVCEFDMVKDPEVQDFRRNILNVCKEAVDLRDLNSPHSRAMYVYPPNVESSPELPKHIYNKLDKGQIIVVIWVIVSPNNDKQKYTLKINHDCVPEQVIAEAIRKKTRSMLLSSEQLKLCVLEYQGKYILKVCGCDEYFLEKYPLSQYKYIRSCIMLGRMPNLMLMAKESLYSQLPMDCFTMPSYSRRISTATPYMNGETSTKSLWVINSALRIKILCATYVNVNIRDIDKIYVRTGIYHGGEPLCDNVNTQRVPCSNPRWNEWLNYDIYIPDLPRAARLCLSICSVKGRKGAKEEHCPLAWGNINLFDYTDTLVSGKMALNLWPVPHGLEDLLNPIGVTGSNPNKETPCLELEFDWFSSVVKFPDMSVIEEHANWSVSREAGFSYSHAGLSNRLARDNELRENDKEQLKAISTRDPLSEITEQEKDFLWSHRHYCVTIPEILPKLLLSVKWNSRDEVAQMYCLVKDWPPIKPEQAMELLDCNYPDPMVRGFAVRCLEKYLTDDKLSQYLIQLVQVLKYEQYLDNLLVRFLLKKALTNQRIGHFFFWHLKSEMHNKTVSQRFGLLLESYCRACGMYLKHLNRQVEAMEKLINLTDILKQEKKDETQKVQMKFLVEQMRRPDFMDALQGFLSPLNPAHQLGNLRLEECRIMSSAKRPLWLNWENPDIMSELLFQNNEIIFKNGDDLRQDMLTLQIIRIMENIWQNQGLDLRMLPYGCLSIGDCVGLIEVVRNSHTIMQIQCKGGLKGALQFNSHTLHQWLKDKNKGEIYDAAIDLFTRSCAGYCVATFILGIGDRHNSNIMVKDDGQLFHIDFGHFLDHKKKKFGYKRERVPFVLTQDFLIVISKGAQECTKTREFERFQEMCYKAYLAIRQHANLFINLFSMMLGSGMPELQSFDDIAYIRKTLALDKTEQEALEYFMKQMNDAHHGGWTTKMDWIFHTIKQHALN
T4 sequence (P27986 whole entry partner): as the sequence (P27986 whole entry partner) above
Method in brief: as §1

PI3Kα [7] = target: T4, PI3Kα; assay: Biochemical assay using 200 μM ATP, Alpha
Description: as §2, §3, §4, §5, §6, §7

PI3Kβ [8] = target: T1, PI3Kβ; assay: Biochemical assay using 200 μM ATP, Beta
PI3Kγ [9] = target: T2, PI3Kγ; assay: Biochemical assay using 200 μM ATP, Gamma
Description: as §2, §3, §4, §5, §6, §7

human neutrophils = assay: Elastase exocytosis from neutrophils (fMLP-induced); assay type: cell-based; conditions: neutrophil (PMN) elastase release
Method in brief: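 Human blood neutrophils (Ficoll-Hypaque) treated with compound or DMSO, then stimulated 90 min at 37 °C with 1 μM fMLP plus 0.01 mg/mL cytochalasin B, 1.0 μM NaN3 and 5 μg/mL L-methionine. Supernatant elastase read at 410 nm over 2 h on MeO-suc-AAPV-pNA, normalized to uninhibited; EC50 in μM.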

SMILES	IC50 (PI3Kβ [1]) [µM]	IC50 (PI3Kγ [2]) [µM]	EC50 [3] [µM]	EC50 (T cell proliferation) [µM]	melting point	IC50 (PI3Kδ [4]) [µM]	IC50 (PI3Kδ [5]) [µM]	Alpha/Delta Ratio (PI3Kα [6])	IC50 (PI3Kα [6]) [µM]	Beta/Delta Ratio (PI3Kβ [1])	Alpha/Delta Ratio (PI3Kα [7])	Beta/Delta Ratio (PI3Kβ [8])	IC50 (PI3Kβ [8]) [µM]	Gamma/Delta Ratio (PI3Kγ [9])	IC50 (PI3Kγ [9]) [µM]	remaining activity at 100 µM (PI3Kα [6]) [%]	EC50 (human neutrophils) [µM]	remaining activity at 100 µM (PI3Kβ [1]) [%]	Gamma/Delta Ratio (PI3Kγ [2]; ratio of IC50 values)	IC50 (PI3Kα [7]) [µM]
O=c1c2ccc(F)cc2nc(CSc2ncnc3[nH]cnc23)n1-c1ccccc1Cl [Compound D-022, 3-(2-Chlorophenyl)-7-fluoro-2-(9H-purin-6-ylsulfanylmethyl)-3H-quinazolin-4-one]	110	40	1.8	2.3	151.4 to 154.2 °C	4.2	0.8													
O=c1c2cc3ccccc3cc2nc(CSc2ncnc3[nH]cnc23)n1-c1ccccc1Cl [Compound D-019, 3-(2-Chlorophenyl)-2-(9H-purin-6-ylsulfanylmethyl)-3H-benzo[g]quinazolin-4-one]	105		0.9 ± 0.01	0.9	247.8 to 254.4 °C (dec.)	30	7	10	67	15	7	3	100	1	33					
Nc1ncnc2c1ncn2Cc1nc2cccc(Cl)c2c(=O)n1-c1ccccc1Cl [Compound D-006, 2-(6-Aminopurin-o-ylmethyl)-5-chloro-3-(2-chlorophenyl)-3H-quinazolin-4-one]	6		0.2 ± 0.1	5.3	245.7 to 246 °C	0.92 ± 0.1	0.15	>652		38	226	48	44 ± 5	95	87 ± 33	78	0.3 ± 0.1			
Nc1ncnc2c1ncn2Cc1nc2cccc(F)c2c(=O)n1Cc1ccccc1 [Compound D-049, 2-(6-aminopurin-9-ylmethyl)-3-benzyl-5-fluoro-3H-quinazolin-4-one]	30		2	6.3			1	>100		30						110	5			
CCCCn1c(CSc2ncnc3[nH]cnc23)nc2ccccc2c1=O [Compound D-038, 3-butyl-2-(9H-purin-6-ylsulfanylmethyl)-3H-quinazolin-4-one]		60	1.4 ± 0.1	2.9		1.8	0.6	>167		>170	77	82		31	55	77	5	63	100	
Cc1cccc2nc(Cn3cnc4c(N)ncnc43)n(-c3ccccc3F)c(=O)c12 [Compound D-048, 2-(6-aminopurin-9-ylmethyl)-3-(2-fluorophenyl)-5-methyl-3H-quinazolin-4-one]	14		0.4 ± 0.2	5		1.4 ± 0.9	0.16	449	70	90	67	70	95 ± 7	91	123 ± 40		0.9 ± 0.2			90 ± 57
Cc1cccc2nc(Cn3cnc4c(N)ncnc43)n(-c3ccccc3Cl)c(=O)c12 [Compound D-007, 2-(6-Aminopurin-9-ylmethyl)-3-(2-chlorophenyl)-5-methyl-3H-quinazolin-4-one]	30		0.3 ± 0.1	4.2	190.7 to 190.9 °C	0.73 ± 0.2	0.16	>619		188	252	99	72 ± 12	121	88 ± 4	82	0.4			
Nc1ncnc2c1ncn2Cc1nc2cccc(F)c2c(=O)n1-c1ccccc1Cl [Compound D-005, 2-(6-Aminopurin-9-ylmethyl)-3-(2-chlorophenyl)-5-fluoro-3H-quinazolin-4-one]	46		0.7 ± 0.1	3.9	159 to 172 °C (dec.)	11	0.8	>121		56	20	16		17		89	4.3 ± 1			
Nc1ncnc2c1ncn2Cc1nc2cc(F)ccc2c(=O)n1-c1ccccc1Cl [Compound D-003, 2-(6-Aminopurin-o-ylmethyl)-3-(2-chlorophenyl)-7-fluoro-3N-quinazolin-4-one]			3.9	5.7	216.8 to 217.2 °C		4	22	92	>24								53		
Cc1cccc2nc(CSc3ncnc4[nH]cnc34)n(-c3ccccc3C(C)C)c(=O)c12 [Compound D-035, 3-(2-isopropylphenyl)-5-methyl-2-(9H-purin-6-ylsulfanylmethyl)-3H-quinazolin-4-one]	3		0.2 ± 0.1	2.9 ± 0.7		0.49 ± 0.1	0.05	199	9	65	193	69	34 ± 6	14	6.8 ± 1		0.3 ± 0.1			95 ± 6
